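These data come from cells grown in 96-well plates and exposed to compound for 48 hours at five concentrations. GI50 = concentration required for 50% inhibition of growth. TGI: concentration producing complete growth inhibition.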
Columns and labels:
Assay in all cases: NCI anticancer screen, dose series, 48 h
SF-295 CNS = test system: SF-295 CNS
SK-MEL-5 melanoma = test system: SK-MEL-5 melanoma
MDA-MB-435 = test system: MDA-MB-435
BT-549 breast = test system: BT-549 breast
MOLT-4 leukemia = test system: MOLT-4 leukemia
A498 renal = test system: A498 renal
LOX IMVI melanoma = test system: LOX IMVI melanoma
SNB-75 CNS = test system: SNB-75 CNS
MCF7 breast = test system: MCF7 breast
UO-31 renal = test system: UO-31 renal
NCI-H460 lung = test system: NCI-H460 lung
RXF 393 renal = test system: RXF 393 renal
HL-60(TB) leukemia = test system: HL-60(TB) leukemia
CAKI-1 renal = test system: CAKI-1 renal
SNB-19 CNS = test system: SNB-19 CNS
CCRF-CEM leukemia = test system: CCRF-CEM leukemia
NCI-H522 lung = test system: NCI-H522 lung
SW-620 colon = test system: SW-620 colon
EKVX NSCLC = test system: EKVX NSCLC
SN12C renal = test system: SN12C renal
SR leukemia = test system: SR leukemia
SF-268 CNS = test system: SF-268 CNS
HCC-2998 colon = test system: HCC-2998 colon
ACHN renal = test system: ACHN renal
OVCAR-5 ovarian = test system: OVCAR-5 ovarian
HS 578T breast = test system: HS 578T breast
NCI/ADR-RES ovarian = test system: NCI/ADR-RES ovarian
UACC-62 melanoma = test system: UACC-62 melanoma
IGROV1 ovarian = test system: IGROV1 ovarian
DU-145 prostate = test system: DU-145 prostate
SK-MEL-2 melanoma = test system: SK-MEL-2 melanoma
TK-10 renal = test system: TK-10 renal
NCI-H23 lung = test system: NCI-H23 lung
MALME-3M melanoma = test system: MALME-3M melanoma
UACC-257 melanoma = test system: UACC-257 melanoma
HT29 colon = test system: HT29 colon
SK-OV-3 ovarian = test system: SK-OV-3 ovarian
SK-MEL-28 melanoma = test system: SK-MEL-28 melanoma
SF-539 CNS = test system: SF-539 CNS
K-562 leukemia = test system: K-562 leukemia
HCT-15 colon = test system: HCT-15 colon
MDA-MB-231 breast = test system: MDA-MB-231 breast
OVCAR-3 ovarian = test system: OVCAR-3 ovarian
MDA-MB-468 breast = test system: MDA-MB-468 breast
HOP-92 NSCLC = test system: HOP-92 NSCLC

`CC(=O)Nc1ccc(-c2cn(-c3cccc(C(=O)Nc4cc(CN5CCOCC5)cc(C(F)(F)F)c4)c3)nn2)cn1` showed a GI50 (SF-295 CNS) of 1.59 µM, a TGI (SF-295 CNS) of 2.94 µM and a GI50 (SK-MEL-5 melanoma) of 1.57 µM. It also gave a TGI (SK-MEL-5 melanoma) of 2.93 µM, a GI50 (MDA-MB-435) of 1.58 µM and a TGI (MDA-MB-435) of 3.29 µM. It also gave a GI50 (BT-549 breast) of 2.59 µM, a TGI (BT-549 breast) of 4.44 µM and a GI50 (MOLT-4 leukemia) of 3.12 µM. For the same molecule, the TGI (MOLT-4 leukemia) was 16.7 µM, the GI50 (A498 renal) was 2.41 µM and the TGI (A498 renal) was 4.57 µM. It also gave a GI50 (LOX IMVI melanoma) of 1.42 µM, a TGI (LOX IMVI melanoma) of 2.8 µM and a GI50 (SNB-75 CNS) of 1.78 µM. The TGI (SNB-75 CNS) was 3.28 µM, the GI50 (MCF7 breast) was 1.72 µM and the TGI (MCF7 breast) was 3.35 µM. The GI50 (UO-31 renal) was 1.92 µM, the TGI (UO-31 renal) was 3.8 µM and the GI50 (NCI-H460 lung) was 2.34 µM. For the same molecule, the TGI (NCI-H460 lung) was 5.11 µM, the GI50 (RXF 393 renal) was 1.87 µM and the TGI (RXF 393 renal) was 3.36 µM. For the same molecule, the GI50 (HL-60(TB) leukemia) was 1.33 µM, the TGI (HL-60(TB) leukemia) was 5.47 µM and the GI50 (CAKI-1 renal) was 1.91 µM. The TGI (CAKI-1 renal) was 3.48 µM, the GI50 (SNB-19 CNS) was 2.23 µM and the TGI (SNB-19 CNS) was 4.36 µM. For the same molecule, the GI50 (CCRF-CEM leukemia) was 3.34 µM, the TGI (CCRF-CEM leukemia) was > 100 µM and the GI50 (NCI-H522 lung) was 2.04 µM. For the same molecule, the TGI (NCI-H522 lung) was 4.82 µM, the GI50 (SW-620 colon) was 1.94 µM and the TGI (SW-620 colon) was 3.83 µM. For the same molecule, the GI50 (EKVX NSCLC) was 2.44 µM, the TGI (EKVX NSCLC) was 6.13 µM and the GI50 (SN12C renal) was 1.65 µM. For the same molecule, the TGI (SN12C renal) was 3.08 µM, the GI50 (SR leukemia) was > 100 µM and the TGI (SR leukemia) was > 100 µM. For the same molecule, the GI50 (SF-268 CNS) was 2.58 µM, the TGI (SF-268 CNS) was 5.58 µM and the GI50 (HCC-2998 colon) was 1.94 µM. It also gave a TGI (HCC-2998 colon) of 3.5 µM, a GI50 (ACHN renal) of 1.77 µM and a TGI (ACHN renal) of 3.26 µM. It also gave a GI50 (OVCAR-5 ovarian) of 1.88 µM, a TGI (OVCAR-5 ovarian) of 4.99 µM and a GI50 (HS 578T breast) of 1.9 µM. For the same molecule, the TGI (HS 578T breast) was 5.04 µM, the GI50 (NCI/ADR-RES ovarian) was 9.4 µM and the TGI (NCI/ADR-RES ovarian) was > 100 µM. The GI50 (UACC-62 melanoma) was 1.29 µM, the TGI (UACC-62 melanoma) was 2.66 µM and the GI50 (IGROV1 ovarian) was 2.19 µM. It also gave a TGI (IGROV1 ovarian) of 5.12 µM, a GI50 (DU-145 prostate) of 2.4 µM and a TGI (DU-145 prostate) of 5.11 µM. It also gave a GI50 (SK-MEL-2 melanoma) of 2.13 µM, a TGI (SK-MEL-2 melanoma) of 5.44 µM and a GI50 (TK-10 renal) of 0.433 µM. The TGI (TK-10 renal) was 1.46 µM, the GI50 (NCI-H23 lung) was 1.63 µM and the TGI (NCI-H23 lung) was 3.08 µM. For the same molecule, the GI50 (MALME-3M melanoma) was 0.477 µM, the TGI (MALME-3M melanoma) was 1.82 µM and the GI50 (UACC-257 melanoma) was 1.63 µM. For the same molecule, the TGI (UACC-257 melanoma) was 3.57 µM, the GI50 (HT29 colon) was 2 µM and the TGI (HT29 colon) was 5.97 µM. The GI50 (SK-OV-3 ovarian) was 2.13 µM, the TGI (SK-OV-3 ovarian) was 3.93 µM and the GI50 (SK-MEL-28 melanoma) was 1.28 µM. For the same molecule, the TGI (SK-MEL-28 melanoma) was 2.57 µM, the GI50 (SF-539 CNS) was 1.48 µM and the TGI (SF-539 CNS) was 2.82 µM. The GI50 (K-562 leukemia) was 0.178 µM, the TGI (K-562 leukemia) was > 100 µM and the GI50 (HCT-15 colon) was 2.03 µM. It also gave a TGI (HCT-15 colon) of 4.11 µM, a GI50 (MDA-MB-231 breast) of 1.23 µM and a TGI (MDA-MB-231 breast) of 2.59 µM. For the same molecule, the GI50 (OVCAR-3 ovarian) was 2.23 µM, the TGI (OVCAR-3 ovarian) was 3.99 µM and the GI50 (MDA-MB-468 breast) was 1.65 µM. The TGI (MDA-MB-468 breast) was 3.1 µM, the GI50 (HOP-92 NSCLC) was 1.95 µM and the TGI (HOP-92 NSCLC) was 4.62 µM.

Source: PubChem BioAssay (NCI)
